Results reported in US7253177B2, “Synthesis and antimalarial activity of pyrrolo[3,2-f]quinazoline-1,3-diamine derivatives” (United States of America as Represented by the Secretary of …, priority 2004, dated 2007).
Converted amounts (≈) assume the structure as drawn. Where two headings read alike, the source gives them in different places.

Assays:
[1] = test system: Plasmodium berghei (KBG-173 strain); format: in vivo; conditions: mice, oral
Method: (§1) B. Antimalarial Activities: (a). In Vitro Antimalarial Studies. The in vitro assays were conducted by using a modification of the semiautomated microdilution technique of Desjardins et al and Chulay et al.. Four P. falciparum malaria parasite clones, from CDC Indochina III (W-2), CDC Sierra Leone I (D-6), Southeast Asia Isolates (TM91C235) and RCS (Isolates from Brazil) were utilized in susceptibility testing. They were derived by direct visualization and micromanipulation from patient isolates. The W-2 clone is susceptible to mefloquine but resistant to chloroquine, sulfadoxine, pyrimethamine, and quinine, whereas the D-6 clone is naturally resistant to mefloquine but susceptible to chloroquine, sulfadoxine, pyrimethamine and quinine. Test compounds were initially dissolved in DMSO and diluted 400 fold in RPMI 1640 culture medium supplemented with 25 mM Hepes, 32 mM NaHCO3 and 10% Albumax I (Gibco BRL, Grand Island, N.Y.). These solutions were subsequently serially diluted two-fold with a Biomek 1000 (Beckman, Fullerton, Calif.) over 11 different concentrations. The parasites were exposed to serial dilutions of each compound for 48 hrs and incubated at 37° C. with 5% O2, 5% CO2 and 90% N2 prior to the addition of [^3H]hypoxanthine. After a further incubation of 18 hrs, parasite DNA was harvested from each microtiter well using Packard Filtermate 196 Harvester (Meriden, Conn.) onto glass filters. Uptake of [^3H]hypoxanthine was measured with a Packard Topcount Scintillation. Concentration-response data were analyzed by a non-linear regression logistic dose response model and the IC50 values (50% inhibitory concentrations) for each compound were calculated. (Table 3). (b). In Vivo Antimalarial Studies against P. berghei in mice: The in vivo efficacy of the artelinic acid analogs were determined in a modified Thompson test. This test measures the survivability of mice and parasitemia clearance following administration of drug on days 3-5 post infection. In brief, 5×10^6 P. berghei-infected erythrocytes (KBG-173 strain) were inoculated intraperitoneally to female mice that weighed 24-30 g. By day three post-infection, parasitemia ranged from 1.0-3.7%. Each drug, dissolved in 5% sodium bicarbonate, was administered PO twice daily from day 3-5 post-infection. Total doses for each drug ranged from 1.5-384 mg/kg with 8 mice included in each dosage group. The percent suppression of parasitemia in the treated mice compared to the untreated controls was determined for each test compound; the SD-50 (fifty percent suppression dose) and SD-90 were determined from a non-linear regression logistic dose response fit at day 6 parasitemia data. Survival of mice to day 60 post-infection was considered a cure (C). Compounds were considered active (A) when the survival time of the treated mice was greater than twice the control mice, i.e., 12-14 day (Table 4-5). (c). Sporozoite Induced Test Each compound is ground with a mortar & pestle and suspended in 0.5% hydroxyethylcellulose—0.1% Tween 80 for compounds to be administered PO and those given SC are suspended in peanut oil. Each compound is prepared at 3 different dose levels as requested by WRAIR. Compounds are administered either PO or SC to mice once 4 hr before inoculation of sporozoites. Four-week-old male CD-1 mice, purchased from Charles River and weighing 16-17 g, are placed 5 per cage and allowed to acclimate for 4 days before being treated and then inoculated with sporozoites. They are fed food and water ad-lib and maintained at 76° F. with 12 hr light and 12 hr darkness. The cages and water bottles are changed biweekly. The mice are weighed on Days 0, 3 and 6 then biweekly when blood films are taken. Plasmodium yoelii (17×) is used to infect mice that will be used to infect the mosquitoes. Mice are given a single dose of test compound 4 hr before being inoculated intraperitoneally with 2.5×10^5 sporozoites of Plasmodium yoelii on Day 0. […]

[2] = test system: Plasmodium falciparum W-2 clone (CDC Indochina III); assay: In vitro antimalarial study, [3H]hypoxanthine uptake, W-2 clone; format: cell-based; conditions: for IC50 W-2: P. falciparum W-2 clone; for IC50: Plasmodium falciparum, read-out: IC50 W-2
Method: as §1

[3] = test system: Plasmodium falciparum D-6 clone (CDC Sierra Leone I); assay: In vitro antimalarial study, [3H]hypoxanthine uptake, D-6 clone; format: cell-based; conditions: for IC50 D-6: P. falciparum D-6 clone; for IC50: Plasmodium falciparum, read-out: IC50 D-6
Method: as §1

[4] = test system: Plasmodium falciparum RCS (Isolates from Brazil); assay: In vitro antimalarial study, [3H]hypoxanthine uptake, RCS clone; format: cell-based; conditions: P. falciparum RCS clone; for IC50: Plasmodium falciparum
Method: as §1

[5] = test system: Plasmodium falciparum TM91C235 (Southeast Asia Isolates); assay: In vitro antimalarial study, [3H]hypoxanthine uptake, TM91C235 clone; format: cell-based; conditions: for IC50 TM91C235: P. falciparum TM91C235 clone; for IC50: Plasmodium falciparum, read-out: IC50 TM91C235
Method: as §1

Plasmodium berghei = assay: Antimalarial activity against Plasmodium berghei in mice by subcutaneous injection; format: in vivo
[6] = test system: Plasmodium yoelii (17x) sporozoites; assay: Sporozoite induced test in mice; format: in vivo; conditions: P. yoelii, mice, oral
Method: as §1, with “mosquitoes. […] Whole body weights” for “mosquitoes. Mice”, “are taken” for “are given a single dose of test compound 4 hr before being inoculated intraperitoneally with 2.5×10^5 sporozoites of Plasmodium yoelii”, “Day 0 and Day 6 then twice a week for 31 days. A blood film is taken on Day 5 and then twice a week for 31 days. Mice loosing >20% of their body weight will be sacrificed.” for “Day 0.”

O=C1CCC(=O)N1c1nc(N2C(=O)CCC2=O)c2c(ccc3c2ccn3Cc2ccccc2C(F)(F)F)n1 [Compound 3g, 1,3-Bis-(1-pyrrolidine-2,5-dione)-7-(2-trifluoromethyl)benzyl-7H-pyrrolo[3,2-f]quinazoline]
# Mice Alive Day 30/Total ([1]; 80 mg/kg/day): 2/5
# Mice Alive Day 30/Total ([1]; 40-10 mg/kg/day): 0/5
# Mice Dead/Day Died ([1]; 40-10 mg/kg/day): deaths in each group
IC50 W-2 [2]: 0.1284 ng/mL (≈ 0.246 nM)
IC50 D-6 [3]: 0.1284 ng/mL (≈ 0.246 nM)
IC50 RCS [4]: 0.2571 ng/mL (≈ 0.493 nM)
IC50 TM91C235 [5]: 0.4021 ng/mL (≈ 0.771 nM)

CCOC(=O)Nc1nc(N(C(=O)OCC)C(=O)OCC)c2c(ccc3c2ccn3Cc2ccccc2C(F)(F)F)n1 [Compound 2c]
# Mice Alive Day 30/Total ([1]; 80-1.25 mg/kg/day): 5/5
# Mice Dead/Day Died ([1]; 80-1.25 mg/kg/day): None
IC50 W-2 [2]: >250 ng/mL
IC50 D-6 [3]: >250 ng/mL
IC50 RCS [4]: >250 ng/mL
IC50 TM91C235 [5]: >250 ng/mL

Nc1nc(N2C(=O)CCC2=O)nc2ccc3c(ccn3Cc3ccccc3C(F)(F)F)c12 [Compound 3f, 1-Amino-3-(1-pyrrolidine-2,5-dione)-7-(2-trifluoromethyl-benzyl)-7H-pyrrolo[3,2-f]quinazoline]
IC50 [2]: < 0.488 ng/mL
IC50 [3]: < 0.488 ng/mL

CCOC(=O)Nc1nc(N)nc2ccc3c(ccn3Cc3ccccc3C(F)(F)F)c12 [Compound 2a]
# Mice Dead/Day Died ([1]; 40-2.5 mg/kg/day): Death in each dose
IC50 W-2 [2]: >250 ng/mL
# Mice Alive Day 31/Total (Plasmodium berghei; 40 mg/kg/day): 5/7
# Mice Dead/Day Died (Plasmodium berghei; 40 mg/kg/day): 2/17
# Mice Alive Day 31/Total (Plasmodium berghei; 20-2.5 mg/kg/day): 7/7
# Mice Dead/Day Died (Plasmodium berghei; 20-2.5 mg/kg/day): none
IC50 D-6 [3]: 20.709 ng/mL (≈ 48.2 nM)
IC50 RCS [4]: >250 ng/mL
IC50 TM91C235 [5]: >250 ng/mL

CC(C)(C)OC(=O)N(C(=O)OC(C)(C)C)c1nc(N)nc2ccc3c(ccn3Cc3ccccc3C(F)(F)F)c12 [Compound 2h]
# Mice Alive Day 30/Total ([1]; 1.25 mg/kg/day): 2/5
# Mice Alive Day 30/Total ([1]; 80-2.5 mg/kg/day): 5/5
# Mice Dead/Day Died ([1]; 80-2.5 mg/kg/day): None
IC50 W-2 [2]: 3.6678 ng/mL (≈ 6.58 nM)
# Mice Alive Day 31/Total (Plasmodium berghei; 40-2.5 mg/kg/day): 7/7
# Mice Dead/Day Died (Plasmodium berghei; 40-2.5 mg/kg/day): none
IC50 D-6 [3]: 0.2549 ng/mL (≈ 0.457 nM)
IC50 RCS [4]: 5.2370 ng/mL (≈ 9.39 nM)
IC50 TM91C235 [5]: 26.366 ng/mL (≈ 47.3 nM)

CC(=O)Nc1nc(N)nc2ccc3c(ccn3Cc3ccccc3C(F)(F)F)c12 [Compound 3a]
IC50 [2]: 0.0186 ng/mL (≈ 0.0466 nM)
IC50 [3]: 0.0097 ng/mL (≈ 0.0243 nM)
IC50 [4]: 0.0096 ng/mL (≈ 0.024 nM)
IC50 [5]: 0.0206 ng/mL (≈ 0.0516 nM)

CC(C)(C)OC(=O)Nc1nc(N(C(=O)OC(C)(C)C)C(=O)OC(C)(C)C)c2c(ccc3c2ccn3Cc2ccccc2C(F)(F)F)n1 [Compound 2i]
IC50 W-2 [2]: 33.569 ng/mL (≈ 51 nM)
# Mice Alive Day 31/Total (Plasmodium berghei; 40-2.5 mg/kg/day): 7/7
# Mice Dead/Day Died (Plasmodium berghei; 40-2.5 mg/kg/day): none
IC50 D-6 [3]: 1.9252 ng/mL (≈ 2.93 nM)
IC50 RCS [4]: 26.380 ng/mL (≈ 40.1 nM)
IC50 TM91C235 [5]: 97.708 ng/mL (≈ 149 nM)

CC(C)(C)OC(=O)N(C(=O)OC(C)(C)C)c1nc(N(C(=O)OC(C)(C)C)C(=O)OC(C)(C)C)c2c(ccc3c2ccn3Cc2ccccc2C(F)(F)F)n1 [Compound 2j]
# Mice Alive Day 31/Total (Plasmodium berghei; 2.5 mg/kg/day): 2/7
# Mice Alive Day 31/Total (Plasmodium berghei; 10 mg/kg/day): 6/7
# Mice Dead/Day Died (Plasmodium berghei; 10 mg/kg/day): 1/24
# Mice Alive Day 31/Total (Plasmodium berghei; 20 mg/kg/day): 7/7
# Mice Dead/Day Died (Plasmodium berghei; 20 mg/kg/day): none
# Mice Alive Day 31/Total (Plasmodium berghei; 40 mg/kg/day): 5/7
# Mice Dead/Day Died (Plasmodium berghei; 40 mg/kg/day): 2/19

CC(=O)Nc1nc(N(C(C)=O)C(C)=O)c2c(ccc3c2ccn3Cc2ccccc2C(F)(F)F)n1 [Compound 3d]
# Mice Dead/Day Died ([1]; 10-0.625 mg/kg/day): death in each group
# Mice Alive Day 30/Total ([1]; 220-40 mg/kg/day): 5/5
# Mice Dead/Day Died ([1]; 220-40 mg/kg/day): None

CC(=O)N(C(C)=O)c1nc(N)nc2ccc3c(ccn3Cc3ccccc3C(F)(F)F)c12 [Compound 3b]
IC50 [2]: 0.0183 ng/mL (≈ 0.0415 nM)
IC50 [3]: 0.0101 ng/mL (≈ 0.0229 nM)
IC50 [4]: 0.0116 ng/mL (≈ 0.0263 nM)
IC50 [5]: 0.0212 ng/mL (≈ 0.048 nM)

COc1cc(C)c2c(Oc3cccc(C(F)(F)F)c3)c(OC)cc(NC(C)CCCN)c2n1 (stereo not drawn) [Tefenoquine, reference compound]
Number of Mice Cured ([6]; 1.25 mg/kg): 2/5
Number of Mice Cured ([6]; 2.5 mg/kg): 4/5
Number of Mice Cured ([6]; 5 mg/kg): 5/5
Number of Mice Cured ([6]; 10 mg/kg): 5/5

Nc1nc(O)c2c(ccc3c2ccn3Cc2ccccc2C(F)(F)F)n1 [Compound 4, 1-hydroxy-3-amino-7-(2-trifluromethyl)benzyl-7H-pyrrolo [3,2-f]quinazoline]
oral dose range giving 100% cure against P. berghei ([1]; Thompson test): 80 to 180 mg/kg
# Mice Alive Day 30/Total ([1]; 320 mg/kg/day): 1/5
# Mice Dead/Day Died ([1]; 40-10 mg/kg/day): deaths in each group
# Mice Alive Day 30/Total ([1]; 160-80 mg/kg/day): 5/5
# Mice Dead/Day Died ([1]; 160-80 mg/kg/day): none
IC50 [2]: 53.9 ng/mL (≈ 150 nM)
IC50 [3]: 7.24 ng/mL (≈ 20.2 nM)
IC50 [5]: 83.4 ng/mL (≈ 233 nM)
